The test system of one data set is BALB/c J mice. The experiment in a line: Model of cellulose implant in mice (haemoglobin concentration in the implant, angiogenesis). Type of data set: in vivo. As for the experimental part:
This model is an adaptation of the model described by Andrade et al. (Microvascular Research, 1997, 54, 253-61) for testing pharmacological products capable of activating the onset of angiogenesis.
The animals (white consanguineous BALB/c J mice) are anaesthetized with a xylazine (Rompun®, 10 mg/kg)/ketamine (Imalgene® 1000, 100 mg/kg) mixture intraperitoneally. The animal's back is shaved and disinfected with Hexomedine®. An air pocket is created subcutaneously on the mouse's back by injecting 5 ml of sterile air. An incision of about 2 cm at the top of the animal's back is made in order to introduce a sterile cellulose implant (disk 1 cm in diameter, 2 mm thick, Cellspon® ref. 0501) impregnated with 50 μl of sterile solution containing the test product. […]
Seven days after inserting the sponge, the mice are sacrificed by means of a lethal dose of pentobarbital sodium (CEVA Santé Animale), administered intraperitoneally. […] On the day of the assay, the tubes are again centrifuged after thawing and the haemoglobin concentration is measured with the Drabkin reagent (Sigma, volume for volume) by reading on a spectrophotometer at 405 nm against a standard range of bovine haemoglobin (Sigma).
The haemoglobin concentration in each sample is expressed in mg/ml from the polynomial regression produced from the range. The results are expressed as a mean value (±sem) for each group. […]

A short description of data set [1]: Pharmacokinetics after cutaneous administration to mice, plasma LC/MS-MS. The format is in vivo. Conditions: OF1 or C57/BL6 mice, 30 mg/kg, single administration. The method, then: The pharmacokinetic profile of the compounds according to the invention is evaluated after cutaneous administration, to OF1 or C57/BL6 mice, at a concentration of 30 mg/kg. The systemic exposure of the compounds is evaluated after a single administration to the animal anaesthetized beforehand with pentobarbital. The blood is collected from the vena cava and then transferred into plastic tubes containing lithium heparin. After centrifugation (2000×g for 10 minutes at 8° C.), the concentration of the compounds in the plasma is quantified by LC/MS-MS.

As for “Methyl (sodium 2-O-sodium sulfonato-α-L-idopyranosyluronate)-(1→4)-(2-acetamido-2-deoxy-6-O-sodium sulfonato-α-D-glucopyranosyl)-[(1→4)-(sodium 2-O-sodium sulfonato-α-L-idopyranosyluronate)-(1→4)-(2-acetamido-2-deoxy-6-O-sodium sulfonato-α-D-glucopyranosyl)]2-(1→4)-(sodium 2-O-sodium sulfonato-α-L-idopyranosyluronate)-(1→4)-2-acetamido-2-deoxy-6-O-sodium sulfonato-α-D-glucopyranoside [Compound 7]”, the “specific activity in the cellulose implant model (active at)” value in the data set with BALB/c J mice (BALB/c J mice, subcutaneous cellulose implant, haemoglobin assay after seven days) was determined as 15 ng/site. Also, the “activity relative to the fully sulfated analogue (all —NH-acyl groups replaced with —NH—SO3— groups)” value in the data set with BALB/c J mice (cellulose implant in mice) is “greater than 21%”. In addition, in data set [1] (plasma), the “AUC (0-Clast)” value is listed as 22 000 ng · h/mL and the T1/2 turned out to be 24 min. The “Plasma conc., t = 4 h” value in data set [1] (plasma at 4 hours) was 425 ng/mL.

Values taken from patent US9012413B2, “FGF receptor-activating N-acyl octasaccharides, preparation thereof, and therapeutic use thereof” (Sanofi, priority 2009, dated 2015).
